From patent US20090162372A1, “FIBRONECTIN ED-B ANTIBODIES, CONJUGATES THEREOF, AND METHODS OF USE” (Medarex, Inc., priority 2007, published 2009)

B1: anti-ED-B: human monoclonal antibody 1C5 binding fibronectin ED-B, VH SEQ ID NO: 7, VL SEQ ID NO: 8; naked antibody (antibody, listed as Homo sapiens, V domains shown)
VH: EVQLVESGGGLVQPGGSLRLSCAASGFTFSSYSMNWVRQAPGKGLEWVSYISSSSRAIYYADSVKGRFTISRDNAKNSLYLQMNSLRDEDTAVYYCARARYFDWLWYYWGQGTLVTVSS
VL: EIVLTQSPGTLSLSPGERATLSCRASQSVSSSYLAWYQQEPGQAPRLLIYGASSRATGIPDRFSGSGSGTDFTLTISRLEPEDFAVYYCQQRSNWPPTFGQGTKVEIK

Columns and labels:
[1] = experimental animals; cited from earlier work
[2] = system: LNCaP/prostate stroma coculture tumors; experiment: Efficacy against LNCaP/prostate stroma coculture tumors in SCID mice (tumor volume); assay type: in vivo, CB17.SCID mice; conditions: naked antibody 30 mg/kg IP SD on Day 0; to Day 62; FIG. 4
Experimental: In order to determine the efficacy of anti-RG-1 and ED-B-cytotoxin conjugates (using the cytotoxin/linker of formula (m)), LNCaP xenografts were performed as follows: 120 CB17.SCID mice were each subcutaneously injected with 2 million LNCaP cells and 1 million prostate stroma cells (cat# CC-2508, Cambrex Bio Science Walkersville, Inc, Walkersville, Md.) resuspended in 0.2 ml of PBS/Matrigel (1:1) (BD Bioscience) at the flank region. This LNCaP/Stroma model expresses high levels of PMSA on the cell surface, high levels of RG-1 in the stroma, and low levels of ED-B in the stroma. CD70 is used as an isotype control as the xenographs are negative for CD70. Mice were weighed and measured for tumors three dimensionally using an electronic caliper once weekly after implantation. Tumor volumes were calculated as height×width×length/2. Mice with tumors averaging 50 mm^3 were randomized into 16 treatment groups of seven mice on Day-1 and mice were treated intraperitoneally with vehicle, antibody, or antibody-cytotoxin conjugate according to the dosing regimen described in Table 1 on Day 0, Studies were terminated at Day 62.

| Molecule | delayed death [1] | effect on tumor growth (median tumor volume) [2] |
| --- | --- | --- |
| COc1c(O)c2c(c3cc(C(=O)N4CCc5c4c(O)c(OC)c4[nH]c(C(=O)N6CC7CC78C6=CC(=O)c6[nH]cc(C)c68)cc54)[nH]c13)CCN2C(N)=O (centres unmarked) [CC-1065] | causes delayed death in experimental animals |  |
| B1 |  | no inhibitory effect on tumor growth |
